Experimental data published in BigSolDB 2.1.

O=C1c2ccccc2-c2ccc(Br)cc21
solubility (mole fraction)
Details | in 1,4-dioxane | in acetonitrile | in ethanol | in ethyl acetate | in isopropanol | in methanol | in methyl acetate | in n-butanol | in n-butyl acetate | in n-propanol
278.15 K | – | 0.000793 | 0.000435 | 0.00515 | 0.000365 | 0.000214 | 0.00408 | 0.000924 | 0.00637 | 0.0006
283.15 K | 0.0136 | 0.001 | 0.000546 | 0.00603 | 0.000477 | 0.000265 | 0.00517 | 0.00119 | 0.00757 | 0.000747
288.15 K | 0.0167 | 0.00122 | 0.000674 | 0.00732 | 0.000604 | 0.000329 | 0.00608 | 0.00148 | 0.00911 | 0.000915
293.15 K | 0.0199 | 0.00152 | 0.000831 | 0.00865 | 0.000765 | 0.00042 | 0.00738 | 0.0018 | 0.0113 | 0.00116
298.15 K | 0.0241 | 0.00188 | 0.00101 | 0.0102 | 0.000969 | 0.000529 | 0.00882 | 0.00221 | 0.0136 | 0.00143
303.15 K | 0.0284 | 0.00227 | 0.00123 | 0.012 | 0.0012 | 0.00066 | 0.0105 | 0.00268 | 0.016 | 0.00173
308.15 K | 0.0334 | 0.00273 | 0.00146 | 0.0136 | 0.00148 | 0.000828 | 0.0123 | 0.00328 | 0.019 | 0.00208
313.15 K | 0.0391 | 0.00327 | 0.00174 | 0.016 | 0.00183 | 0.00102 | 0.0144 | 0.00393 | 0.0221 | 0.0025
318.15 K | 0.0455 | 0.00389 | 0.00205 | 0.0183 | 0.00224 | 0.00127 | 0.0168 | 0.00466 | 0.0259 | 0.00297
323.15 K | 0.0527 | 0.0046 | 0.00239 | 0.0212 | 0.0027 | 0.00157 | 0.0193 | 0.00553 | 0.03 | 0.0035
